Values of other authors, collected in patent publication US20210350875A1, “HIGH THROUGHPUT METHOD AND SYSTEM FOR MAPPING INT[…] DIAGRAMS” (The Trustees of Princeton University, priority 2018, published 2021).

Tested on: phase separation
Settings: positive control agent, 10 wells, FIG. 2B

## hexanediol
  inhibition of phase separation: fully inhibit phase separation
